According to patent publication US7576128B2 (priority 2004, dated 2009):
Changes are numbered by the printed parent chain. pIC50: −log10 of the molar value. Read-outs that look alike come from different tables or passages of the source.

Legend:
[1] = after 7 years of treatment; cited from earlier work
Male C3H/HeN mice = assay: Modified telogen conversion assay (hair growth, induction of anagen); assay type: in vivo; conditions: test concentration of 3% w/v, topical
Excerpt: It has been discovered that male C3H/HeN mice may be used in the telogen conversion assay, when evaluating anti-androgen test compounds. Thus, the model relates to a modification of the existing telogen conversion assay. Male C3H/HeN mice approximately 7 weeks old are utilized. These animals are also uniformly in telogen, like their female counterparts. However, once shaven, the androgens inherently present in these male mice inhibit the conversion of the hair follicles to the anagen phase. An anti-androgen will block this androgenic effect and the follicles will convert to anagen, like their female counterparts.
Male C3H/HeN mice, 6 to 7 weeks old (Charles River Laboratories, Raleigh, N.C.) were used for the study. Fur was clipped from the dorsal region of the mice prior to initiation of the study. Only mice with pink skin, a visual indication of the telogen phase, were selected for inclusion in the study.
The test compound was dissolved in a vehicle consisting of propylene glycol (30%) and ethanol (70%) to achieve a concentration of either 0.2% w/v, 0.5% w/v, 1% w/v or 3% w/v. The relevant dose was applied topically to the clipped dorsal region of the mice in one test group (7-10 mice) in a volume of 20 μl/cm^2. A third group of animals received only the vehicle to serve as a control. Treatments were applied twice daily for 4 weeks.
The treatment area was observed and graded every other day for signs of hair growth. The hair growth response was quantified by recording, for each animal, the day on which signs of hair growth first appeared over the treated area. The first sign of anagen was the darkening of skin color as melanocytes in the follicles started to synthesize melanin in preparation for the production of pigmented hairs. […] The percentage of mice showing signs of hair growth in both the treatment group and the control group is graphically depicted in FIG. 1.

[2] = target: T1, hAR (human androgen receptor) (Homo sapiens, UniProt P10275); assay: Competitive binding analysis on baculovirus/Sf9 generated hAR extracts with 3H-DHT tracer
T1 construct: made in house; host or cells: baculovirus/Sf9 insect cells
T1 sequence (P10275 1-920): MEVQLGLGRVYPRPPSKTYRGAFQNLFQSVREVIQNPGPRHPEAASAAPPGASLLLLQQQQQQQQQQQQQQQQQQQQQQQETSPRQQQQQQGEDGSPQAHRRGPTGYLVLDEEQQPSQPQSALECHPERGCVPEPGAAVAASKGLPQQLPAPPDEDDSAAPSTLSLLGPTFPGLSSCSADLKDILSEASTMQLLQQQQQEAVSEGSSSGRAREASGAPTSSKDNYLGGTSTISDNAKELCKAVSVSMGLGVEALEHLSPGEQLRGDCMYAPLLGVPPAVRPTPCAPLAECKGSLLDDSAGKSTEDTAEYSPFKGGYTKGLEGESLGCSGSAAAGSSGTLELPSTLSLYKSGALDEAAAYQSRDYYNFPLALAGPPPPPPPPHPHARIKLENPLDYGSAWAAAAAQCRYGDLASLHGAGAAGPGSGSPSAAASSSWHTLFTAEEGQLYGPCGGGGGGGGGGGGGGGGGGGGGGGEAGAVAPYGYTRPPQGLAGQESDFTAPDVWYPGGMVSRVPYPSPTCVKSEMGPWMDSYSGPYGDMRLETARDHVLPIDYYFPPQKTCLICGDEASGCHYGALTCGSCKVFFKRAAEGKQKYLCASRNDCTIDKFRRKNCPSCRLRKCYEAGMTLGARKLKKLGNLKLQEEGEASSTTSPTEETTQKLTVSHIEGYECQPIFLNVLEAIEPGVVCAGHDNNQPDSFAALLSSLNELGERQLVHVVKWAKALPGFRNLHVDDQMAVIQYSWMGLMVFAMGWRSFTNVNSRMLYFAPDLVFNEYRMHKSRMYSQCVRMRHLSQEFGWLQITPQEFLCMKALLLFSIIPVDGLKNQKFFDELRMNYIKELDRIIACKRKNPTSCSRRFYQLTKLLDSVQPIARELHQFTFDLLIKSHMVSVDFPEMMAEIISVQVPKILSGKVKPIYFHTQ
Method: The description below describes how the assay was carried out.
Competitive binding analysis was performed on baculovirus/Sf9 generated hAR extracts in the presence or absence of different concentrations of test agent and a fixed concentration of ^3H-dihydrotestosterone (^3H-DHT) as tracer. This binding assay method is a modification of a protocol previously described (Liao S., et. al. J. Steroid Biochem. 20:11-17 1984). Briefly, progressively decreasing concentrations of compounds are incubated in the presence of hAR extract (Chang et al. P.N.A.S. Vol. 89, pp. 5546-5950,1992), hydroxylapatite, and 1 nM ^3 H-DHT for one hour at 4° C. Subsequently, the binding reactions are washed three times to completely remove excess unbound ^3 H-DHT. hAR bound ^3H-DHT levels are determined in the presence of compounds (=i.e competitive binding) and compared to levels bound when no competitor is present (=i.e. maximum binding). Compound binding affinity to the hAR is expressed as the concentration of compound at which one half of the maximum binding is inhibited.

androgen receptor = target: T2, androgen receptor (Homo sapiens, UniProt P10275); assay: AR antagonist cell assay, MDA-MB453-MMTV clone 54-19 luciferase reporter; assay type: cell-based
T2 sequence (P10275 1-920 Q868H): T1 sequence (P10275 1-920) with Q868H
Method: The compounds ability to antagonize the effects of androgen on the androgen receptor were determined in a whole cell assay as described immediately below.
This cell line is a stable transfected cell line with MDA-MB453 cell background (a human breast tumor cell line expressing androgen receptor). A MMTV minimal promoter containing ARE was first cloned in front of a firefly luciferase reporter gene. Then the cascade was cloned into transfection vector pUV120puro. Electroporation method was used for transfecting MDA-MB-453 cell. Puromycin resistant stable cell line was selected.
• 1. Cells are maintained in culture medium, splitting cells when they reach 80-90% confluence • 2. To test compounds, 10,000 cells/well are plated to opaque 96 cell culture plate in 100 ul/well plating medium, culture for overnight at 37° C. in cell culture incubator • 3. Carefully remove plating medium, then add 80 ul/well of pre-warmed assay medium, add 10 ul/well testing compound (final concentration at) 1000 nM, 200 nM, 40 nM, 8 nM, 1.6 nM, and 0.32 nM), incubate at 37° C. for 30 minutes • 4. Add 10 ul/well freshly prepared DHT (final concentration at 100 pM) to each well, incubate at 37° C. for 17 hr (overnight) • 5.
The results are reported as the mean of multiple tests as described below (the numbers of tests are indicated in the footnote). N.D. denotes that the compound was not tested.

[3] = hAR extract, 1 nM 3H-DHT, one hour at 4° C., mean of multiple tests, read-out: AR Binding IC50
[4] = MDA-MB453-MMTV clone 54-19, 100 pM DHT, 17 hr; mean of multiple tests; read-out: AR Cell IC50

Row | Structure (SMILES) | pIC50 [2] | pIC50 [2, 3] | pIC50 (androgen receptor; [4]) | also measured
1 | NCCCC(O)(P(=O)(O)O)P(=O)(O)O [alendronate] |  |  |  | increase in spinal BMD [1]: ≤ 11%
2 | CC(C)C(O)C(C)(C)COc1ccc(C#N)c(Cl)c1 (stereo not drawn) [Example 27, 2-Chloro-4-(3-Hy-droxy-2,2,4-trimethyl-pentyloxy)-benzonitrile] | 7.20 |  |  | rate of hair growth versus vehicle control (Male C3H/HeN mice): did not exceed that of the vehicle control; pIC50 (androgen receptor; read-out: AR Cell IC50; MDA-MB453-MMTV clone 54-19, 100 pM DHT, 17 hr; mean of multiple tests): 10.40
3 | CCCC(O)CCCOc1ccc(C#N)c(C(F)(F)F)c1 (stereo not drawn) [Example 20, 4-(4-Hydroxy-heptyloxy)-2-tri-fluoromethyl-benzontrile] |  | 6.61 | 6.30 | 
4 | CC(O)CCC(C)Oc1ccc(C#N)c(Cl)c1 (stereo not drawn) [Example 28, 2-Chloro-4-(4-hydroxy-1-methyl-pentyloxy)-benzonitrile] |  |  | 6.58 | pIC50 ([2]; read-out: AR Binding IC50): 7.31
5 | C[C@H](C[C@@H](C)O)Oc1ccc(C#N)c(C(F)(F)F)c1 [Example 17, (1R,3R)-4-(3-Hy-droxy-1-methyl-butoxy)-2-tri-fluoromethyl-benzonitrile] | 6.97 |  | 6.09 | 
6 | N#Cc1ccc(OCCCCCO)cc1C(F)(F)F [Example 24, 4-(5-Hydroxy-pentyloxy)-2-tri-fluoromethyl-benzonitrile] |  | 6.20 | < 6.00 | 
